{"source": "patent US20240316000A1", "about": "“METHODS OF TREATMENT” (DIFFUSION PHARMACEUTICALS LLC, priority 2021, published 2024)", "key": {"healthy volunteers [1]": {"tested_on": "healthy volunteers", "assay": "Transcutaneous oximetry (tcpO2) pharmacodynamic study, single IV bolus, subjects breathing 100% O2", "format": "in vivo, human", "conditions": "for Number (%) of Subjects with a TcpO2 increase during Period 2: TSC-treated N = 24, all doses", "method": "This is a randomized, double-blind, placebo-controlled, pharmacokinetic, pharmacodynamics study of Trans Sodium Crocetinate (TSC) utilizing Transcutaneous Oximetry Measurement (tcpO2) in healthy volunteers breathing 100% O2. Study assessments include tcpO2 levels, SpO2, and PK.\nTcpO2 sensor electrodes are applied to the left or right lower extremity, per PI discretion. Sensor electrode temperature is preset to 45° C., to allow maximum vasodilation. Risk of sensor site superficial burn is minimal given the relatively brief testing period. Four (4) sensors are applied to the following locations: • Sensor 1: Mid-dorsum of the foot • Sensor 2: 10 cm distal to the lateral femoral epicondyle • Sensor 3: 5 cm proximal to the anterior aspect of the lateral malleolus • Sensor 4: 5 cm proximal from the center of the medial malleolus\nAfter the tcpO2 sensors have been applied and tested, subjects are placed on O2 via a simple facemask at 6 L/minute, and remain on O2 for 70 minutes prior to study drug administration. The first 10 minutes allow for equilibration of O2 levels, and the subsequent 60 minutes serve as the baseline period. TcpO2 values and SpO2 are recorded every 5 minutes during the above periods. Baseline vital signs are measured within 10 minutes prior to study drug dosing.\nAt the end of the 70-minute equilibration/baseline period, subjects continue on O2 and receive a single IV bolus injection of TSC at a dose of 0.5, 1.0, 1.5, 2.0 or 2.5 mg/kg, or placebo. After study drug administration, subjects are evaluated for 60 minutes, with tcpO2 values and SpO2 recorded every 5 minutes. In addition to assessment of tcpO2 every 5 minutes, continuous tcpO2 measurements are provided by the TCOM machine in graphical format.\nThe primary analysis is based on the change over time in the tcpO2 measurements following a single administration of TSC in subjects breathing 100% O2. The time-matched changes from Period 1 (60 minute run-in on 100% O2) to Period 2 (60 minute post-drug administration on 100% O2) serve as the dependent variable in the repeated measures analysis. The 60 minute run-in on 100% O2 is intended to account for the intra-subject variability over time and the time-match differences represent the least biased estimate of the effect of the study drug.\nThe overall pooled median values across the four TcpO2 sensors are calculated using the median value from each sensor during the same interval. To compare the time-matched changes in TcpO2, a 2-factor (treatment and time) repeated measures (time) analysis of variance (ANOVA) model is used. Contrast statements within the model facilitate comparisons between individual dose arms and placebo over time. Intra-subject changes (Period 2 minus Period 1 in 5-minute intervals) serve as the dependent variable in the model. TcpO2 baseline measures during the 60-minute Period 1 are adjusted for intra-subject variability over time. Time-matched differences between values obtained during Period 1 and Period 2 represent the least biased estimate of the effect of the study drug versus placebo.\nTherefore, a supplementary pharmacodynamic analysis on the intra-subject slopes from each period and sensor is performed. For Period 1, on an intra-subject basis, the median value from each of the 12 intervals is used to construct the slope using orthogonal spacing with respect to time. For Period 2, the slope is constructed using the median value from each of the 13 intervals—of note, Period 2 observations include 1- and 2-minute values—in addition to the 5-minute measurements for comparison to the 12 corresponding intervals of Period 1. An additional set of analyses are conducted using the Period 2 intra-subject slopes as the dependent variable. The active dose groups are pooled and the least square means are compared to placebo. This procedure is repeated iteratively, each time removing the next lowest dose group to determine the separation of each cohort's least square means relative to placebo."}, "[2]": {"assay": "Population pharmacokinetics of TSC in plasma (LC-MS/MS, two-compartment model)", "format": "in vivo, human", "parameters": "V2 / V1: unit not given here", "method": "Prior to and following study drug administration, PK samples are obtained at the below intervals: • Pre-dose (within 10 minutes prior to injection) • 1 minute post end of injection (+1 minute) • 10 minutes post end of injection (±1 minute) • 30 minutes post end of injection (±1 minute) • 1.5 hours post end of injection (±2 minutes)\nPlasma is assayed for TSC using LC-MS/MS using prednisone as an internal standard. Sample pre-treatment involves a protein precipitation extraction procedure. Lower limit of quantitation is 10 ng/ml.\nFor 19 of the 24 subjects included in the PK analysis, TSC concentration (Cp: Concentration in Plasma.) in the 1-minute sample is smaller (often many-fold) compared to the 10-minute sample, most likely a result of sampling too soon after the dose is administered. As a result, all 1-minute samples are excluded from population PK analysis.\nBased on previous analyses and examination of drug concentration profiles, a two-compartment model with no covariates fit the data well. To determine whether the systemic parameters should be scaled for body size, three scaling approaches are evaluated: scaling all parameters by weight, allometric scaling (clearances scaled by weight raised to the 0.75 power; distribution volumes scaled by weight), and scaling all parameters by weight raised to an estimated power. The weight normalized model is preferred statistically (evaluated by the decrease in the objective function [similar to a sum of squares]) and by graphics. […] A model is evaluated in which clearance varied as a linear function of dose: […]"}, "healthy volunteers [3]": {"tested_on": "healthy volunteers", "assay": "Safety assessment in the tcpO2 study (adverse events, vital signs)", "format": "in vivo, human", "method": "Vital signs during the treatment and evaluation period are assessed at 10, 30, and 60 minutes post-study drug dosing. Adverse events are assessed throughout."}, "[4]": {"tested_on": "permanent (24-hour) focal ischemia", "conditions": "dosages tested 0.023 to 4.580 mg/kg; cited from earlier work"}, "[5]": {"tested_on": "patients with peripheral artery disease", "conditions": "0.25 mg/kg to 2.0 mg/kg tested, cited from earlier work"}, "hemorrhagic shock": {"tested_on": "hemorrhagic shock", "conditions": "after hemorrhagic shock in rats; cited from earlier work"}, "[6]": {"conditions": "population estimate, multiplied by SCALE (WT/75)"}}}
{"smiles": "CC(/C=C/C=C(\\C)C(=O)[O-])=C\\C=C\\C=C(C)\\C=C\\C=C(/C)C(=O)O.[Na+]", "note": "[TSC, trans sodium crocetinate]", "values": [{"measurement": "Dose giving the greatest difference in TcpO2 from placebo", "setting": "healthy volunteers [1]; 1-hour treatment period (Period 2)", "result": 2.5, "unit": "mg/kg"}, {"measurement": "Peripheral oxygenation levels over time", "setting": "healthy volunteers [1]; Period 2, placebo shows time related decrease", "result": "stable or increasing peripheral oxygenation levels over time"}, {"measurement": "Number (%) of Subjects with a TcpO2 increase during Period 2", "setting": "healthy volunteers [1]; Sensor 1 (mid-dorsum of the foot), placebo 1/5 (20.0%)", "result": "16/24 (66.7%)"}, {"measurement": "Intra-subject TcpO2 slopes, Least Square Mean", "setting": "healthy volunteers [1]; Sensor 1, pooling TSC doses ≥1.0 mg/kg, placebo −0.1878, probability 0.0960", "result": 0.3537}, {"measurement": "Intra-subject TcpO2 slopes, Least Square Mean", "setting": "healthy volunteers [1]; Sensor 1, pooling TSC doses ≥1.5 mg/kg, placebo −0.1878, probability 0.1702", "result": 0.3027}, {"measurement": "Intra-subject TcpO2 slopes, Least Square Mean", "setting": "healthy volunteers [1]; Sensor 1, pooling TSC doses ≥2.0 mg/kg, placebo −0.1878, probability 0.1430", "result": 0.4359}, {"measurement": "Intra-subject TcpO2 slopes, Least Square Mean", "setting": "healthy volunteers [1]; Sensor 1, pooling all TSC doses, placebo −0.1878, probability 0.0876", "result": 0.3185}, {"measurement": "Number (%) of Subjects with a TcpO2 increase during Period 2", "setting": "healthy volunteers [1]; Sensor 2, placebo 0/5", "result": "4/24 (16.7%)"}, {"measurement": "Intra-subject TcpO2 slopes, Least Square Mean", "setting": "healthy volunteers [1]; Sensor 2, pooling TSC doses ≥1.0 mg/kg, placebo −0.3481, probability 0.1139", "result": 0.0656}, {"measurement": "Intra-subject TcpO2 slopes, Least Square Mean", "setting": "healthy volunteers [1]; Sensor 2, pooling TSC doses ≥1.5 mg/kg, placebo −0.3481, probability 0.1306", "result": 0.0149}, {"measurement": "Intra-subject TcpO2 slopes, Least Square Mean", "setting": "healthy volunteers [1]; Sensor 2, pooling TSC doses ≥2.0 mg/kg, placebo −0.3481, probability 0.0959", "result": 0.0753}, {"measurement": "Intra-subject TcpO2 slopes, Least Square Mean", "setting": "healthy volunteers [1]; Sensor 2, pooling all TSC doses, placebo −0.3481, probability 0.0796", "result": 0.0849}, {"measurement": "Number (%) of Subjects with a TcpO2 increase during Period 2", "setting": "healthy volunteers [1]; Sensor 3, placebo 0/5", "result": "3/24 (12.5%)"}, {"measurement": "Intra-subject TcpO2 slopes, Least Square Mean", "setting": "healthy volunteers [1]; Sensor 3, pooling TSC doses ≥1.0 mg/kg, placebo −0.6320, probability 0.0301", "result": 0.0132}, {"measurement": "Intra-subject TcpO2 slopes, Least Square Mean", "setting": "healthy volunteers [1]; Sensor 3, pooling TSC doses ≥1.5 mg/kg, placebo −0.6320, probability 0.0572", "result": 0.0249}, {"measurement": "Intra-subject TcpO2 slopes, Least Square Mean", "setting": "healthy volunteers [1]; Sensor 3, pooling TSC doses ≥2.0 mg/kg, placebo −0.6320, probability 0.0421", "result": 0.0846}, {"measurement": "Intra-subject TcpO2 slopes, Least Square Mean", "setting": "healthy volunteers [1]; Sensor 3, pooling all TSC doses, placebo −0.6320, probability 0.0186", "result": 0.0151}, {"measurement": "Number (%) of Subjects with a TcpO2 increase during Period 2", "setting": "healthy volunteers [1]; Sensor 4, placebo 0/5", "result": "6/24 (25.0%)"}, {"measurement": "Intra-subject TcpO2 slopes, Least Square Mean", "setting": "healthy volunteers [1]; Sensor 4, pooling TSC doses ≥1.0 mg/kg, placebo −0.6389, probability 0.0213", "result": 0.0260}, {"measurement": "Intra-subject TcpO2 slopes, Least Square Mean", "setting": "healthy volunteers [1]; Sensor 4, pooling TSC doses ≥1.5 mg/kg, placebo −0.6389, probability 0.0436", "result": "−0.0909"}, {"measurement": "Intra-subject TcpO2 slopes, Least Square Mean", "setting": "healthy volunteers [1]; Sensor 4, pooling TSC doses ≥2.0 mg/kg, placebo −0.6389, probability 0.0187", "result": 0.0297}, {"measurement": "Intra-subject TcpO2 slopes, Least Square Mean", "setting": "healthy volunteers [1]; Sensor 4, pooling all TSC doses, placebo −0.6389, probability 0.0230", "result": "−0.0198"}, {"measurement": "Increase in TcpO2 levels relative to placebo", "setting": "healthy volunteers [1]; all TSC dose groups, supplemental analysis, Period 2", "result": "greater increase in TcpO2 levels than the placebo group"}, {"measurement": "TCOM readings after TSC administration compared to placebo", "setting": "healthy volunteers [1]; persists up to 60 minutes, most pronounced at 2.0 and 2.5 mg/kg iv", "result": "positive trend"}, {"measurement": "Clearance as a function of dose", "setting": "[2]; IV bolus 0.5-2.5 mg/kg", "result": "clearance decreases at escalating doses"}, {"measurement": "TSC plasma concentrations as a function of dose", "setting": "[2]; IV bolus 0.5-2.5 mg/kg, highest at 2.5 mg/kg", "result": "increase with escalating dose"}, {"measurement": "clearance", "setting": "[2]; human, plasma, population estimate, single IV bolus 0.5-2.5 mg/kg, multiplied by SCALE (WT/75) and FCTR 1-0.53677 · (DOSE/1.5)", "result": 137, "unit": "mL/min"}, {"measurement": "Distribution Clearance", "setting": "[2]; [6]", "result": "161.176 · SCALE L/day"}, {"measurement": "V1", "setting": "[2]; [6]", "result": "4.277 · SCALE"}, {"measurement": "V2", "setting": "[2]; [6]", "result": "46.61 · SCALE"}, {"measurement": "Serious adverse events or withdrawals", "setting": "healthy volunteers [3]; 30 subjects", "result": "No subjects experience a serious adverse event"}, {"measurement": "Number of treatment-emergent adverse events determined to be drug-related", "setting": "healthy volunteers [3]; of nine events, all mild in intensity", "result": "five"}, {"measurement": "Subjects with treatment-emergent adverse events", "setting": "healthy volunteers [3]; seven of the 30 subjects (TSC and placebo cohorts), nine events overall", "result": 23.3, "unit": "%"}, {"measurement": "Safety and tolerability", "setting": "healthy volunteers [3]; single IV bolus 0.5-2.5 mg/kg", "result": "safe and well tolerated"}, {"measurement": "Serious adverse events or dose-limiting toxicities", "setting": "healthy volunteers [3]; up to and including the 2.5 mg/kg iv dose", "result": "no serious adverse events or dose-limiting toxicities"}, {"measurement": "Dosage of maximal protective effect on cerebral infarct volume", "setting": "[4]", "result": 0.092, "unit": "mg/kg"}, {"measurement": "Dose with greatest increase in claudication onset time", "setting": "[5]", "result": 0.25, "unit": "mg/kg"}, {"measurement": "Dosing arm with peak increase in peak walking time", "setting": "[5]; after 5 days of treatment", "result": 1.50, "unit": "mg/kg"}, {"measurement": "Whole-body oxygen consumption", "setting": "hemorrhagic shock", "result": "increase whole-body oxygen consumption"}]}
